The target of test [1] is T1, gastrin (CCK2) receptors (Rattus norvegicus, UniProt P30553).
T1 construct: The stomach was excised and flushed with ca. 1 ml of unbuffered physiological saline solution; from tissue; host or cells: isolated whole stomach of immature rats (ca. 21 days old)
T1 sequence (P30553 1-452): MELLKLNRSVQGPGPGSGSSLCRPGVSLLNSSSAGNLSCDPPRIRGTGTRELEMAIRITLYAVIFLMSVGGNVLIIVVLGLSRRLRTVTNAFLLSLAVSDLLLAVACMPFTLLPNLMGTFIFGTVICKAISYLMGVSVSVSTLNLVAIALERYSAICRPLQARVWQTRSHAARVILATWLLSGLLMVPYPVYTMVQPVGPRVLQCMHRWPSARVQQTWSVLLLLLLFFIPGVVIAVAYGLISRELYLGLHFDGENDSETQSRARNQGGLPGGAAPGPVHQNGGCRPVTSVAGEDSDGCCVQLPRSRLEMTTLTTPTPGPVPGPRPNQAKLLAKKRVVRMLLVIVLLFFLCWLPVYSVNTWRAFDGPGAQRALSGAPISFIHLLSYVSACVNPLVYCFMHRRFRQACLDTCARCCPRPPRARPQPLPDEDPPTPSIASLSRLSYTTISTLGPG
The experiment in a line: gastrin (CCK2) antagonist activity in an immature rat stomach assay. The note with it: pentagastrin dose-response curves, acid secretion, read-out: pKB rat stomach (converted). The method in brief:
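Stomachs excised from immature rats (33-50 g, ca. 21 days old) were perfused at 1 ml min^−1 with unbuffered O2-gassed saline, with acid output tracked by a pH electrode. After 120 min stabilisation, drug was added to the serosal bath, followed 60 min later by cumulative pentagastrin dose-response curves.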

Test [2] addresses T2, human gastrin (CCK2) receptors (Homo sapiens, UniProt P32239).
T2 construct: amplified by PCR (polymerase chain reaction) from the start codon to the stop codon; expressed in transfected cells
T2 sequence (P32239 1-447): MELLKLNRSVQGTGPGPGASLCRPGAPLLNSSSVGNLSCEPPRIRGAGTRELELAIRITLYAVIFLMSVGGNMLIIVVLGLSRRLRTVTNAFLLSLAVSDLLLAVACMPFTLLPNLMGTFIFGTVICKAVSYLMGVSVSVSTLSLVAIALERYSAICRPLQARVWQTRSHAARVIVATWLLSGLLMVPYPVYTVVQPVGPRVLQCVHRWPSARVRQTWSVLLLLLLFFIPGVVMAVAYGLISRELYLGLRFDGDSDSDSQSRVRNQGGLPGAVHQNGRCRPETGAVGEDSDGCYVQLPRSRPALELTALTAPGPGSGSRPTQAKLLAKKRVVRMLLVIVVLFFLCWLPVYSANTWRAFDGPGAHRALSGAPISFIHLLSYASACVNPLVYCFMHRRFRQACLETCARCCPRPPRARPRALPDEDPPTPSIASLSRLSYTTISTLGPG
The experiment in a line: [125I]-BH-CCK-8S binding at human gastrin (CCK2) receptors cloned into an NIH3T3 cell line. The note with it: for Ki: read-out: pKi ± s.e.mean (converted); for pKi ± s.e.mean: displacement of [125I]-BH-CCK-8S, hCCK2R NIH3T3 clone 7 cell membranes. The method, then: NIH3T3 cells from (ECACC) were cultured in Dulbecco's modified Eagle's medium (DMEM) (Invitrogen), containing 2 mM Glutamax I (Invitrogen), 10% heat inactivated newborn calf serum (Invitrogen). Cells (4×10^5) were seeded into 35 mm×10 mm dishes (Corning) and transfected using the Transfast™ reagent (Promega Corp.) according to the manufacturers instructions using 10 μg of the hCCK2R plasmid DNA at a ratio of 1:1 (DNA:Transfast™ reagent). Untransfected cells and cells transfected with vector only were also prepared as controls. After 48 h the cells were trypsinised using standard techniques (Culture of Animal Cells, A Manual of Basic Techniques 4th Ed, R. Ian Freshney) and dilutions were plated on 35 mm×10 mm dishes in media containing 800 μg/ml G-418 (Invitrogen). Cells were selected for 2 weeks until individual, separate colonies appeared. […] Using cloning rings and trypsinisation, according to standard techniques (Culture of Animal Cells, A Manual of Basic Techniques 4th Ed, R. Ian Freshney), individual colonies were picked from plates containing cells transfected with the vector only and cells transfected with the hCCK2R plasmid construct. The cells were expanded and analysed by radioligand binding analysis (see below).
Cultured clone 7 cells were stored as frozen pellets at −70° C. until required. Cell pellets were thawed in CCK2 assay buffer ((mM): 10 Hepes; 130 NaCl; 5 MgCl2; 4.7 KCl; 1 EGTA (pH7.2 at 21° C.) with 0.125 g Bacitracin added to each litre), and homogenised using a Polytron (4×1 s). The resulting membrane preparation was centrifuged at 39,800 g for 15 min at 4° C. Each cell pellet was re-suspended in fresh buffer and re-centrifuged as above. The final pellet was re-suspended by homogenisation (Teflon-in-glass), to the appropriate membrane concentration.
The assays were terminated by rapid filtration through pre-soaked Whatman GF/B filters which were washed (3×3 ml) with ice-cold 50 mM Tris HCl (pH7.4 @ 4° C.). Filters were transferred to plastic gamma counter vials and bound radioactivity determined by counting (1 min) in a Clini-gamma counter.
Saturation data were analysed using the curve-fitting programmes, Radlig and Ligand.
Briefly, dilution and addition of test compounds, radioligand and cell membranes were performed using a Beckman Biomek 2000. The ability of compounds to inhibit the specific binding of to hCCK2 receptors was determined in triplicate over a range of concentrations at half-log intervals. Total and non-specific binding was determined for each compound. Each compound was tested in a minimum of three experiments. Competition data were fitted to the Hill equation using Graph-pad Prism software to obtain estimates of the IC50 (mid-point location parameter) and nH (mid-point slope parameter). Dissociation constants (KI) were determined using the Cheng & Prusoff equation (1973) to correct for the receptor occupancy by the radioligand.
A general note: Loss of bound radioactivity is the signal in a displacement assay; it reports binding, not function.

Test [3] deals with T1, gastrin (CCK2) receptors. As to conditions: rat stomach assay; Kalindjian et al., J. Med. Chem. 1994; cited from earlier work.
For the next test, the target named is T3, CCK2 receptor (Rattus norvegicus, UniProt P30553).
T3 construct: host or cells: rat cortical membranes
T3 sequence (P30553 1-452): T1 sequence (P30553 1-452)
As to conditions: rat cortical membranes; Nishida et al. 1994; cited from earlier work.

Regarding `O=C(CN1N=C(C2CCCCC2)c2ccccc2N(CC(=O)C2CCCC2)C1=O)Nc1cccc(C(=O)O)c1` [Example 22, 3-{2-[5-Cyclohexyl-1-(2-cyclopentyl-2-oxo-ethyl)-2-oxo-1,2-dihydro-3H-1,3,4-benzotriazepin-3-yl]-acetylamino}-benzoic acid], on gastrin (CCK2) receptors [1], the Kb was 1.86 nM. Moreover, in test [2], the Ki is 0.355 nM.

With `O=C(O)Cc1cccc(NC(=O)CN2N=C(C3CCCCC3)c3ccccc3N(CC(=O)C3CCCC3)C2=O)c1` [Example 56, (3-{2-[5-Cyclohexy-1-(2-cyclopentyl-2-oxo-ethyl)-2-oxo-1,2-dihydro-3H-1,3,4-benzotriazepin-3-yl]-acetylamino}-phenyl)-acetic acid], the Kb on gastrin (CCK2) receptors [1] was 0.741 nM. Besides, in test [2], the Ki is 0.162 nM.

Consider `O=C(O)CSc1cccc(NC(=O)CN2N=C(C3CCCCC3)c3ccccc3N(CC(=O)C3CCCC3)C2=O)c1` [Example 58, (3-{2-[5-Cyclohexyl-1-(2-cyclopentyl-2-oxo-ethyl)-2-oxo-1,2-dihydro-3H-1,3,4-benzotriazepin-3-yl]-acetylamino}-phenylsulfanyl)-acetic acid], for which the Kb at gastrin (CCK2) receptors [1] is 1.48 nM. For the same compound, the “pKi ± s.e.mean” value in test [2] was 9.48 ± 0.08.

For `CC(C)(C)C(=O)CN1C(=O)N(CC(=O)Nc2cccc(-c3nc(=O)o[nH]3)c2)N=C(C2CCCCC2)c2ccccc21` [Example 59, 2-[5-Cyclohexyl-1-(3,3-dimethyl-2-oxo-butyl)-2-oxo-1,2-dihydro-3H-1,3,4-benzotriazepin-3-yl]-N-[3-(5-oxo-Z5-dihydro-[1,2,4]oxadiazol-3-yl)-phenyl]-acetamide], on gastrin (CCK2) receptors [1], the Kb was 9.55 nM. In test [2], the Ki is 0.219 nM.

As to `O=C(CN1N=C(C2CCCCC2)c2ccccc2N(CC(=O)C2CCCC2)C1=O)Nc1cccc(-c2nc(=O)o[nH]2)c1` [Example 121, 2-[5-Cyclohexyl-1-(2-cyclopentyl-2-oxo-ethyl)-2-oxo-1,2-dihydro-3H-1,3,4-benzotriazepin-3-yl]-N-[3-(5-oxo-Z 5-dihydro-[1,2,4]oxadiazol-3-yl)-phenyl]-acetamide], on gastrin (CCK2) receptors [1], the Kb was 0.295 nM. Besides, in test [2], the Ki was 0.11 nM.

With `O=C(O)CCc1cccc(NC(=O)CN2N=C(C3CCCCC3)c3ccccc3N(CC(=O)C3CCCC3)C2=O)c1` [Example 128, 3-(3-{2-[5-Cyclohexyl-1-(2-cyclopentyl-2-oxo-ethyl)-2-oxo-1,2-dihydro-3H-1,3,4-benzotriazepin-3-yl]-acetylamino}-phenyl)-propionic acid], on gastrin (CCK2) receptors [1], the Kb was 1.23 nM. For the same compound, the Ki in test [2] was 0.204 nM.

On to `CNc1nc(-c2cccc(NC(=O)CN3N=C(C4CCCCC4)c4ccccc4N(CC(=O)C(C)(C)C)C3=O)c2)cs1` [Example 150, 2-[5-Cyclohexyl-1-(3,3-dimethyl-2-oxo-butyl)-2-oxo-1,2-dihydro-3H-1,3,4-benzotriazepin-3-yl]-N-[3-(2-methylamino-thiazol-4-yl)-phenyl]-acetamide], for which the Kb on gastrin (CCK2) receptors [1] was 1.29 nM.

As for `CC(C)(C)C(=O)CN1C(=O)N(CC(=O)Nc2cccc(-c3cccc(C(=O)O)c3)c2)N=C(C2CCCCC2)c2ccccc21` [Example 151, 3′-{2-[5-Cyclohexyl-1-(3,3-dimethyl-2-oxo-butyl)-2-oxo-1,2-dihydro-3H-1,3,4-benzotriazepin-3-yl]-acetylamino}-biphenyl-3-carboxylic acid], the Kb on gastrin (CCK2) receptors [1] was 11.5 nM.

With `C=C(CN1C(=O)N(CC(=O)Nc2cccc(CC(=O)O)c2)N=C(C2CCCCC2)c2ccccc21)C(C)(C)C` [Example 152, (3-{2-[1-(2-tert-Butyl-allyl)-5-cyclohexyl-2-oxo-1,2-dihydro-3H-1,3,4-benzotriazepin-3-yl]-acetylamino}-phenyl)-acetic acid], the Kb on gastrin (CCK2) receptors [1] was 50.1 nM.

Regarding `CC(C)(C)C(=O)CN1C(=O)N(CC(=O)Nc2cccc(-c3ccccc3C(=O)O)c2)N=C(C2CCCCC2)c2ccccc21` [Example 154, 3′-{2-[5-Cyclohexyl-1-(3,3-dimethyl-2-oxo-butyl)-2-oxo-1,2-dihydro-3H-1,3,4-benzotriazepin-3-yl]-acetylamino}-biphenyl-2-carboxylic acid], on gastrin (CCK2) receptors [1], the Kb is 3.24 nM.

For the compound `CC(=O)N/C(=C\c1cccc(NC(=O)CN2N=C(C3CCCCC3)c3ccccc3N(CC(=O)C(C)(C)C)C2=O)c1)C(=O)O` [Example 155, 2-Acetylamino-3-(3-{2-[5-cyclohexyl-1-(3,3-dimethyl-2-oxo-butyl)-2-oxo-1,2-dihydro-3H-1,3,4-benzotriazepin-3-yl]-acetylamino}-phenyl)-acrylic acid], the Kb at gastrin (CCK2) receptors [1] is 70.8 nM.

Take `CC(C)(C)C(=O)CN1C(=O)N(CC(=O)Nc2cccc(-c3ccc(C(=O)O)s3)c2)N=C(C2CCCCC2)c2ccccc21` [Example 157, 5-(3-{2-[5-Cyclohexyl-1-(3,3-dimethyl-2-oxo-butyl)-2-oxo-1,2-dihydro-3H-1,3,4-benzotriazepin-3-yl]-acetylamino}-phenyl)-thiophene-2-carboxylic acid]: the Kb at gastrin (CCK2) receptors [1] is 7.76 nM.

In the case of `O=C(O)CCCc1cccc(NC(=O)CN2N=C(C3CCCCC3)c3ccccc3N(CC(=O)C3CCCC3)C2=O)c1` [Example 159], the Kb at gastrin (CCK2) receptors [1] is 1.26 nM.

As to `CN1C(=O)N(CC(=O)Nc2ccccc2)[N+]([O-])=C(C2CCCCC2)c2ccccc21` [Example 160, 2-(5-Cyclohexyl-1-methyl-2-oxo-4-oxy-1,2-dihydro-3H-1,3,4-benzotriazepin-3-yl)-N-phenyl-acetamide], the Kb at gastrin (CCK2) receptors [1] is 2.82 nM. For the same compound, the Ki in test [2] is 3240 nM.

In the case of `Cc1cccc(NC(=O)N[C@@H]2N=C(c3ccccc3)c3ccccc3N(C)C2=O)c1` [L-365,260], the “affinity pKB for the CCK2 receptor” value on gastrin (CCK2) receptors [3] is reported as 7.61±0.12.

With `CNc1cccc(NC(=O)N[C@@H]2N=C(c3ccccn3)c3ccccc3N(CC(=O)C(C)(C)C)C2=O)c1` [YF476], the “affinity pKi for the CCK2 receptor” value at CCK2 receptor is given as 10.17+0.03.

`Cc1cccc(NC(=O)N[C@@H]2N=C(c3ccccc3)c3ccccc3N(CC(=O)c3ccccc3C)C2=O)c1` [YM022, reference compound]: in test [2], the “pKi ± s.e.mean” value came out at 10.19 ± 0.03.
